Experimental data from patent publication US8293979B2, “Weed controller metabolism proteins, genes, thereof and use of the same” (Sumitomo Chemical Company, Limited, priority 2001, dated 2012).

Tests used:
Barnyardgrass = experiment: Herbicidal activity test, foliage treatment; assay type: in vivo, Echinochloa crus-galli; set-up: key: 0: situations in which the condition of sprouting or vegetation at the time of examination of the plant utilized for the test was compared with and showed totally or substantially no difference with that of the untreated application; 10: situations in which the plant completely withered or the sprouting or vegetation was completely suppressed; conditions: sprayed onto the foliage of plants cultivated 10 days, investigated after 16 days in a greenhouse
Method: Soil was packed into a round plastic pot having a diameter of 10 cm and depth of 10 cm. Barnyardgrass, Blackgrass, Ivyleaf morningglory were seeded and cultivated in a greenhouse for 10 days. Five (5) parts of the test compound, 6 parts of sorpol3005X (Toho Chemical Company) and 89 parts of xylene were well mixed to produce an emulsion. A certain amount thereof was diluted with water containing 0.1% (v/v) of a sticking agent at a proportion of 1000 L for 1 hectare and was spread uniformly with a spray-gun onto the all sides of the foliage from above the plant cultivated in the above pot. After cultivating the plants for 16 days in a greenhouse, the herbicidal activity of the test compound was investigated.
In the above Tables 3 and 4, the strength of the herbicidal activity is shown stepwise as 0, 1, 2, 3, 4, 5, 6, 7, 8, 9, and 10.

[1] = test system: present invention protein (A11); experiment: Detection of the ability to convert compound (II) to compound (III), E. coli pKSN849AF extract; assay type: in vitro ADME, Streptomyces nogalator IFO13445; conditions: 3 ppm of compound (II) labeled with 14C, components A, B, 10 minutes at 30° C.
Method: Reaction solutions of 30 μl were prepared and maintained for 1 hour at 30° C. The reaction solutions consisted of a 0.1M potassium phosphate buffer (pH7.0) containing 3 ppm of compound (II) labeled with ^14C, 2 mM of β-NADPH (hereinafter, referred to as “component A”) (Oriental Yeast Company), 0.2 mg/ml of a ferredoxin derived from spinach (hereinafter referred to as “component B”) (Sigma Company), 1 U/ml of ferredoxin reductase (hereinafter, referred to as “component C”) (Sigma Company) and 18 μl of the supernatant fraction recovered in Example 4(2). Further, there were prepared and maintained similarly reaction solutions having no addition of at least one component utilized in the composition of the above reaction solution, selected from component A, component B and component C. […] Next, the imaging plate was analyzed on Image Analyzer BAS2000 (Fuji Film Company). […]
(§1) Reaction solutions of 30 μl were prepared and maintained for 10 minutes at 30° C. […] Similarly to Example 4(3), the reaction solutions after the maintenance were extracted with ethyl acetate and the extracted layers were TLC analyzed. […] A spot corresponding to compound (III) was detected from the reaction solution containing E. coli pKSN849AF extract. In contrast, such a spot was not detected from the reaction solution containing E. coli pKSN2 extract.

[2] = test system: present invention protein (A12); experiment: Detection of the ability to convert compound (II) to compound (III), E. coli pKSN1618F extract; assay type: in vitro ADME, Streptomyces tsusimaensis IFO 13782; conditions: 3 ppm of compound (II) labeled with 14C, components A, B, 10 minutes at 30° C.
Method: (§2) Reaction solutions of 30 μl were prepared and maintained for 10 minutes at 30° C. The reaction solutions consisted of a 0.1M potassium phosphate buffer (pH7.0) containing 3 ppm of compound (II) labeled with ^14C, 2 mM of β-NADPH (hereinafter, referred to as “component A”) (Oriental Yeast Company), 2 mg/ml of a ferredoxin derived from spinach (hereinafter referred to as “component B”) (Sigma Company), 0.1 U/ml of ferredoxin reductase (hereinafter, referred to as “component C”) (Sigma Company) and 23 μl of the supernatant fraction recovered in Example 32(2). Similarly to Example 4(3), the reaction solutions after the maintenance were extracted with ethyl acetate and the extracted layers were TLC analyzed. […] A spot corresponding to compound (III) was detected from the reaction solution containing E. coli pKSN849AF extract. In contrast, such a spot was not detected from the reaction solution containing E. coli pKSN2 extract.
as §1, with “The” for “Similarly to Example 4(3), the”, “pKSN1618F” for “pKSN849AF”

[3] = test system: present invention protein (A17); experiment: Detection of the ability to convert compound (II) to compound (III), E. coli pKSN608F extract; assay type: in vitro ADME, Streptomyces griseus ATCC 10137; conditions: 3 ppm of compound (II) labeled with 14C, components A, B, 10 minutes at 30° C.
Method: as §2
as §1, with “Similarly to Example 32(3), reaction” for “Reaction”, “The” for “Similarly to Example 4(3), the”, “pKSN608F” for “pKSN849AF”

[4] = test system: present invention protein (A24); experiment: Detection of the ability to convert compound (II) to compound (III), E. coli pKSN1589BF extract; assay type: in vitro ADME, Streptomyces rutgersensis IFO 15875T; conditions: 3 ppm of compound (II) labeled with 14C, components A, B, 10 minutes at 30° C.
Method: as §2
as §1, with “Similarly to Example 32(3), reaction” for “Reaction”, “The” for “Similarly to Example 4(3), the”, “pKSN1589BF” for “pKSN849AF”

[5] = test system: present invention protein (A22); experiment: Metabolism of compounds by the present invention protein (A22), reaction solution, HPLC; assay type: in vitro ADME, Streptomyces pallidus IFO 13434T; conditions: 12.5 ppm of compound, components A, B, C, 20 μl supernatant fraction of Example 61(2), 30° C. for 10 minutes

| Structure (SMILES) | Herbicidal Activity Barnyardgrass (Barnyardgrass; 125 g/ha) | Herbicidal Activity Barnyardgrass (Barnyardgrass; 500 g/ha) | spot corresponding to compound (III) labeled with 14C (TLC) [1] | spot corresponding to compound (III) labeled with 14C (TLC) [2] | spot corresponding to compound (III) labeled with 14C (TLC) [3] | spot corresponding to compound (III) labeled with 14C (TLC) [4] | concentration of the compound detected from metabolism solution (A22) compared to control solution (A22) [5] |
| --- | --- | --- | --- | --- | --- | --- | --- |
| C[C@@H](Oc1cc(-n2c(=O)cc(C(F)(F)F)n(C)c2=O)c(F)cc1Cl)C(=O)O [compound (II)] | 10 | 10 | detected | detected | detected | detected | – |
| Cn1c(C(F)(F)F)cc(=O)n(-c2cc(Oc3cccnc3OCC(=O)O)c(Cl)cc2F)c1=O [compound (XII)] | – | – | – | – | – | – | lower |
